In patent US20240174690A1, “ANNULATED 2-AMINO-3-CYANO THIOPHENES AND DERIVATIVES FOR THE TREATMENT OF CANCER” (BOEHRINGER INGELHEIM INTERNATIONAL GMBH, priority 2021, published 2024):

Assays:
[1] = Caco-2 assay (permeability PappAB, PappBA, efflux ratio); assay type: in vitro ADME; conditions: human, Caco-2, 10 μM test compound, pH 7.4; for efflux ratio at 90 min, 10 μM: efflux ratio PappBA/PappAB, read-out: Caco ER; for Papp A→B at 90 min, 10 μM: apical to basolateral
Procedure, shortened: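 Confluent Caco-2 monolayers on filter supports, 0.25% BSA in both donor and receiver buffer; transport measured a-b and b-a. After 25-30 min preincubation at 37 °C, samples at 0, 30, 60, 90 min quantified by HPLC/MS/MS. Papp from receiver amount per time, filter area and initial donor concentration; efflux ratio = PappBA/PappAB.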

[2] = tested on: KRAS G12C-dependent Ba/F3 cells; experiment: Ba/F3 proliferation assay, KRAS G12C; assay type: cell-based; conditions: Mus musculus, BaF3, 72 h, AlamarBlue
Procedure, shortened: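 Ba/F3 cells retrovirally transduced with KRAS G12 mutants, puromycin-selected and grown without IL-3, so proliferation depends on the mutant KRAS. Compounds tested in technical duplicates; viability read by AlamarBlue fluorescence, with curve fitting for potency.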

efflux ratio at 90 min, 10 μM [1]	IC50 [2] [nM]	Papp A→B at 90 min, 10 μM [1] [×10⁻⁶ cm/s]	Structure (SMILES)
2.5	3		C[C@H](NC(=O)c1ccn(-c2cc(O[C@@H](C)[C@@H]3CCCN3C)nc(-c3noc4c3CCC[C@@]43CCCc4sc(N)c(C#N)c43)n2)n1)c1ccccn1 [II-191]
2.5	2	10	C[C@H](Oc1cc(-n2ccc(C(=O)N[C@@H]3CCOC3)n2)nc(-c2noc3c2CCC[C@@]32CCCc3sc(N)c(C#N)c32)n1)[C@@H]1CCCN1C [II-192]
2.6	4	11	C[C@H](Oc1cc(-n2ccc(C(=O)N(C)C3COC3)n2)nc(-c2noc3c2CCC[C@@]32CCCc3sc(N)c(C#N)c32)n1)[C@@H]1CCCN1C [II-194]
4.5	2	6.2	COCCNC(=O)c1ccn(-c2cc(O[C@@H](C)[C@@H]3CCCN3C)nc(-c3noc4c3CCC[C@@]43CCCc4sc(N)c(C#N)c43)n2)n1 [II-195]
1.8	3	18	CO[C@H]1CCN(C)[C@@H]1[C@H](C)Oc1cc(-n2ccc(C(N)=O)n2)nc(-c2noc3c2CCC[C@@]32CCCc3sc(N)c(C#N)c32)n1 [II-201]
3.6	18	4.4	C[C@H](Oc1cc(-n2cc3ccn([C@H]4CCOC4)c(=O)c3n2)nc(-c2noc3c2CCC[C@@]32CCCc3sc(N)c(C#N)c32)n1)[C@@H]1CCCN1C [II-202]
16.8	7		C[C@H](Oc1cc(-n2cc3ccn(C4CCOCC4)c(=O)c3n2)nc(-c2noc3c2CCC[C@@]32CCCc3sc(N)c(C#N)c32)n1)[C@@H]1CCCN1C [II-206]
2.6	2		C[C@H](Oc1cc(-n2ccc(-c3cn(C4CCOCC4)nn3)n2)nc(-c2noc3c2CCC[C@@]32CCCc3sc(N)c(C#N)c32)n1)[C@@H]1CCCN1C [II-210]
2.2	6		C[C@H](Oc1cc(-n2ccc(-c3cn([C@@H]4CCOC4)nn3)n2)nc(-c2noc3c2CCC[C@@]32CCCc3sc(N)c(C#N)c32)n1)[C@@H]1CCCN1C [II-211]
2.9	2		C[C@H](Oc1cc(-n2ccc(-c3cn([C@H]4CCOC4)nn3)n2)nc(-c2noc3c2CCC[C@@]32CCCc3sc(N)c(C#N)c32)n1)[C@@H]1CCCN1C [II-212]
2.6	11		C[C@H](Oc1cc(-n2ccc(-c3cn(CC4(C)COC4)nn3)n2)nc(-c2noc3c2CCC[C@@]32CCCc3sc(N)c(C#N)c32)n1)[C@@H]1CCCN1C [II-213]
